Measurements from publication PMC10165273, “Itch receptor MRGPRX4 interacts with the receptor activity–modifying proteins” (The Journal of Biological Chemistry, 2023).

Columns and labels:
MRGPRX4 [1] = molecular target: T1, MRGPRX4 (Homo sapiens, UniProt Q96LA9); assay: BRET2 β-arrestin2 recruitment to MRGPRX4; format: cell-based; conditions: 100 μM agonist (Fig. 5B, C)
T1 construct: expressed in transfected cells; host or cells: HEK293T
Source text: (§1) The method for homogenous transfection of β-Arrestin and BRET^2 assay of β-Arrestin recruitment has been described previously ([51]). […] BRET^2 measurements were taken on the BioTek Synergy NEO2 microplate reader.
(§2) For MRGPRX4 DNA titration assays, HEK293T cells were cotransfected with either β-Arrestin1 or β-Arrestin2 with increasing amounts of MRGPRX4 (0.5, 1, or 2 pg/cell).
To measure the time-course of β-Arrestin2 recruitment to MRGPRX4 and CALCRL, the transfection and general procedure described above was followed, with the modification that Prolume Purple was added first, followed by addition of the appropriate agonists ([51]).
(§3) The BRET ratio for each sample was determined by calculating the ratio of the light intensity emitted by the GFP10 (515 nm) (acceptor) over the light intensity emitted by the RLuc3 (395 nm) (donor). Net BRET^2 was determined by subtracting the basal BRET^2 (β-arrestin-RLuc3 only) signal from the BRET^2 signals. All BRET values were normalized to the MRGPRX4-only condition.

MRGPRX4 [2] = molecular target: T1, MRGPRX4; assay: BRET2 β-arrestin1 recruitment to MRGPRX4; format: cell-based; conditions: 100 μM agonist (Fig. 5A)
Protocol: as §1, §2, §3

T1 sequence (Q96LA9 whole entry): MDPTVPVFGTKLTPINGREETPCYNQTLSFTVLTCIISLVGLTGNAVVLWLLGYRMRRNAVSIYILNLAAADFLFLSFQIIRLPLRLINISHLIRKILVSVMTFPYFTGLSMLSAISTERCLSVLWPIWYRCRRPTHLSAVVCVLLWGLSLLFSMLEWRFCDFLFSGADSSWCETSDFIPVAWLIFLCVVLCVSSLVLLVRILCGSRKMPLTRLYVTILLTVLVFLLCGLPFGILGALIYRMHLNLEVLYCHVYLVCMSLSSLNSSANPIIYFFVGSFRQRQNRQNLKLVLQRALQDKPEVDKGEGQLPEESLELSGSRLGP

## C[C@H](CCC(=O)O)[C@H]1CC[C@H]2[C@@H]3CC[C@@H]4C[C@H](O)CC[C@]4(C)[C@H]3C[C@H](O)[C@]12C [DCA, deoxycholic acid]
MRGPRX4 [1]
  β-arrestin2 recruitment to MRGPRX4: did not observe any β-arrestin2 recruitment
MRGPRX4 [2]
  β-arrestin1 recruitment to MRGPRX4: did not recruit β-arrestin1
